# Laboratory results from patent publication US9629834B2, “Medicinal composition for inhibiting formation and/or enlargement of cerebral aneurysm or shrinking same” (KYOTO UNIVERSITY, priority 2013, dated 2017).
# Legend:
# [1] = tested on: lymphocytes in peripheral blood; assay: Lymphopenic action in cerebral aneurysm model; assay type: in vivo, SD rat; conditions: 0.03 mg/5 mL or 0.1 mg/5 mL suspension, 5 mL/kg, forced oral, once a day, Day 1 to Day 27; blood collected Day 28; FIG. 2
# Experimental: A rat model of cerebral aneurysm was prepared according to the method disclosed on the literature by Hashimoto et al. (Surgical Neurology 1978, Vol. 10, p. 3-8). Namely, 50 mg/kg of pentobarbital was administrated intraperitoneally to a 7-week-old male SD rat, and the left common carotid artery and the left renal artery were ligated by using 10-0 nylon thread under anesthesia (this is referred to as the surgery for inducing cerebral aneurysm). From the day after surgery (Day 1), the rat was reared with being fed a high-salt diet. During a rearing period, the rat was given free access to water. Forced oral administration of 0.03 mg/5 mL or 0.1 mg/5 mL of the suspension of Compound 1 to the cerebral aneurysm model was conducted once a day at a dose of 5 mL/kg from 1 day after surgery (Day 1) to 27 days after surgery (Day 27). It should be noted that forced oral administration of the 0.5% MC solution (0 mg/5 mL of the suspension of Compound 1) to the cerebral aneurysm model was conducted once a day at a dose of 5 mL/kg. The group of these rats was defined as a vehicle group. […] The number of lymphocytes in the collected blood was counted by using a blood test system (Advia 120, Siemens Healthcare Diagnostics) according to the manual of the system.
# [2] = tested on: macrophages (F4/80-positive cells); assay: Infiltration of macrophages into cerebral aneurysm formation site (F4/80 immunostaining); assay type: in vivo, SD rat; conditions: Day 1 to Day 27, Day 28, vs vehicle group, FIG. 3B
# Experimental: A rat model of cerebral aneurysm was prepared according to the method disclosed on the literature by Hashimoto et al. (Surgical Neurology 1978, Vol. 10, p. 3-8). Namely, 50 mg/kg of pentobarbital was administrated intraperitoneally to a 7-week-old male SD rat, and the left common carotid artery and the left renal artery were ligated by using 10-0 nylon thread under anesthesia (this is referred to as the surgery for inducing cerebral aneurysm). From the day after surgery (Day 1), the rat was reared with being fed a high-salt diet. During a rearing period, the rat was given free access to water. Forced oral administration of 0.03 mg/5 mL or 0.1 mg/5 mL of the suspension of Compound 1 to the cerebral aneurysm model was conducted once a day at a dose of 5 mL/kg from 1 day after surgery (Day 1) to 27 days after surgery (Day 27). 28 Days after surgery (Day 28), the treatments on the right olfactory artery/anterior cerebral artery bifurcation containing cerebral aneurysm were conducted by using similar procedures to the steps 1) to 5) of Reference Example 2, and a section of the bifurcation was prepared. […] Under the observation with a confocal microscope, the number of macrophages was counted in an area of 100 μm square centered around the cerebrovascular bifurcation where cerebral aneurysm developed. The measurement was conducted on five rats and the mean value was calculated. […]
# [3] = Influences on blood pressure and heart rate of rats (tail-cuff method); assay type: in vivo, SD rat; conditions: 0.03 or 0.1 mg/kg oral once a day, Day 1 to Day 27; measured Day 28, without anesthesia; FIG. 7A and FIG. 7B
# Experimental: Immediately before dissecting rats 28 days after surgery (Day 28) as described in the section (1) of Example 1, blood pressure and heart rate of each of rats were measured noninvasively without anesthesia by a tail-cuff method. The measurement was conducted by using a noninvasive blood pressure measuring device for rats and mice BP-98A (Softron). The measurement was conducted three times per rat, and the mean value was used for calculating the mean value of all rats in each of the groups. No influence of the administration of Compound 1 on any blood pressure (SBP: systolic blood pressure, MBP: mean blood pressure, DBP: diastolic blood pressure) or heart rate was observed.
# [4] = tested on: Human carotid artery endothelial cells HCtAEC; assay: Permeability of endothelial cells (Transwell, FITC-dextran); assay type: cell-based; conditions: 0.1 nM, 1 nM, 10 nM, or 100 nM; 60 minutes pre-culture; fluorescence after 5, 60 and 210 minutes; FIG. 14
# Experimental: Human carotid artery endothelial cells […] (Cell Applications) were seeded in the upper compartment of Transwell (diameter: 6.5 mm, pore size: 0.4 μm, collagen-Coated: Corning) so that the cell density was 1×10^5 cells/well, and the cells were cultured overnight in MesoEndo Growth Medium (Cell Applications) under a 5% CO2 atmosphere at 37° C. The medium was replaced with Endothelial Cell Serum-Free Defined Medium (Cell Applications), and the cells were further cultured overnight under the CO2 atmosphere at 37° C. Then, Compound 1 was added to the upper compartment and the lower compartment of Transwell so that the final concentration was 0 nM, 0.1 nM, 1 nM, 10 nM, or 100 nM, and the cells were cultured continuously. The well to which Compound 1 was not added was defined as a control. After culturing for 60 minutes, 250 μg/mL of fluorescein isothiocyanate (FITC)-dextran (2,000 kDa: Sigma-Aldrich) was added to the upper compartment of Transwell, and the amount of FITC-dextran which permeated into the lower compartment was determined by measuring the fluorescence intensity of the medium in the lower compartment after 5 minutes, 60 minutes, and 210 minutes.
smiles,measurement,setting,value
"C[C@H](Oc1ccc(-c2nc(-c3ccc4[nH]cnc4c3)no2)cc1C(F)(F)F)C(F)(F)F.Cl [Compound 1, 5-{5-[3-(trifluoromethyl)-4-{[(2S)-1,1,1-trifluoropropan-2-yl]oxy}phenyl]-1,2,4-oxadiazol-3-yl}-1H-benzimidazole hydrochloride]",number of lymphocytes in peripheral blood,[1],decreased the number of lymphocytes in peripheral blood in a concentration-dependent manner
same,number of macrophages at the cerebral aneurysm formation site,[2]; 0.03 mg/kg oral once a day,decreased as compared to the number of macrophages in the vehicle group
same,number of macrophages at the cerebral aneurysm formation site,[2]; 0.1 mg/kg oral once a day,decreased as compared to the number of macrophages in the vehicle group
same,"influence on blood pressure (SBP, MBP, DBP)",[3],No influence
same,influence on heart rate,[3],No influence
same,amount of FITC-dextran which permeated into the lower compartment (permeability of endothelial cells),[4],decreased the amount of FITC-dextran which permeated into the lower compartment in a concentration-dependent manner
